Experimental findings from PMC10023780, “Insights into membrane association of the SMP domain of extended synaptotagmin” (Nature Communications, 2023) are described below.

Positions count from the first letter of the chain named.

One assay has as its target T1, full-length E-Syt1 (Homo sapiens, UniProt Q9BSJ8).
T1 construct: gene ESYT1; full length, residues 1-1104, His-tagged (pCMV6-AN-His), Expi293 cells, detergent-purified, reconstituted in ER-like liposomes
T1 sequence (Q9BSJ8 1-1104): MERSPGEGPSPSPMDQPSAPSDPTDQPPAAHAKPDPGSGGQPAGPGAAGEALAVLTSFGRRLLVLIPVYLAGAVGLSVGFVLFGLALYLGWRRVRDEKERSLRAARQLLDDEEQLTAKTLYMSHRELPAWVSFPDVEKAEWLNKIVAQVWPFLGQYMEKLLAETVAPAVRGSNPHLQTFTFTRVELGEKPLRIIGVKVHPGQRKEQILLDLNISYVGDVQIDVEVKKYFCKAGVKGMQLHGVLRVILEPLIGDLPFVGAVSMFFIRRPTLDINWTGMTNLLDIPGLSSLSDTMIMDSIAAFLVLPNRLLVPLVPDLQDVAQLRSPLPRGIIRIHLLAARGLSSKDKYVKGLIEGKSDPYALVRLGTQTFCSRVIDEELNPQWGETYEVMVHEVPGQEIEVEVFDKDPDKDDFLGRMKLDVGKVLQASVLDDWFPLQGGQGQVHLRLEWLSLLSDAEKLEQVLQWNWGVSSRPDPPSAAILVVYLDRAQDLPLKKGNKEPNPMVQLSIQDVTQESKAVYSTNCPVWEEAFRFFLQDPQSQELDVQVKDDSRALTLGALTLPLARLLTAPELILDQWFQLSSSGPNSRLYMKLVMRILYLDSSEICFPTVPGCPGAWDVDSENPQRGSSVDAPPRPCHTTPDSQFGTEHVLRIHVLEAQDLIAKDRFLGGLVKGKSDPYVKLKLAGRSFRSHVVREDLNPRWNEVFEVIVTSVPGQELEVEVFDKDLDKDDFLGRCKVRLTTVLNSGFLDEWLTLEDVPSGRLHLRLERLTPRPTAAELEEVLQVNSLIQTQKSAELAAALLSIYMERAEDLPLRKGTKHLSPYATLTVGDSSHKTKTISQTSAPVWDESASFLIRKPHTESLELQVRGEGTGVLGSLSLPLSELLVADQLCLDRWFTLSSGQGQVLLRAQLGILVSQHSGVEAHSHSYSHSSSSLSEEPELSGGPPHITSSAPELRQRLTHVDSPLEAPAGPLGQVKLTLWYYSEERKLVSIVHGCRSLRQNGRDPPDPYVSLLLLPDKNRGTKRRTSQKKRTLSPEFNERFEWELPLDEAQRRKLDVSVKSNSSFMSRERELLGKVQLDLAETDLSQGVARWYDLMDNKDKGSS
Kind of assay: FRET dequenching lipid transfer from proteoliposomes. It is filed as biochemical. The settings on record: Ca2+ present, 40-nm sorted ER-like proteoliposomes, 800-nm PM-like acceptors, pH 7.4, room temperature; labelled compound.

For a further assay, the target named is T2, SMP of E-Syt3 (Homo sapiens, UniProt A0FGR9).
T2 construct: gene ESYT3; SMP domain alone, residues 113-304, His tag (pET-28a); full-length protein 886 residues
T2 sequence (A0FGR9 113-304): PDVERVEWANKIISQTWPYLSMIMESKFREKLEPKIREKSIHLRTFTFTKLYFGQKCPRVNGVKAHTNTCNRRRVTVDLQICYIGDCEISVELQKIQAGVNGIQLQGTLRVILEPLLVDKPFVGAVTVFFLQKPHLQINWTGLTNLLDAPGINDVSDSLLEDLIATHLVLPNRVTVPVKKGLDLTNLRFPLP
Briefly: FRET dequenching lipid transfer between liposomes. The settings on record: curved ER-like donor and PM-like acceptor liposomes, pH 7.4; labelled compound. It is filed as biochemical.

A further assay addresses T3, E-Syt1cyto (Homo sapiens, UniProt Q9BSJ8).
T3 construct: gene ESYT1; cytosolic region, residues 93-1104, N-terminal hairpin region replaced by His tag (pCMV6-AN-His)
T3 sequence (Q9BSJ8 93-1104): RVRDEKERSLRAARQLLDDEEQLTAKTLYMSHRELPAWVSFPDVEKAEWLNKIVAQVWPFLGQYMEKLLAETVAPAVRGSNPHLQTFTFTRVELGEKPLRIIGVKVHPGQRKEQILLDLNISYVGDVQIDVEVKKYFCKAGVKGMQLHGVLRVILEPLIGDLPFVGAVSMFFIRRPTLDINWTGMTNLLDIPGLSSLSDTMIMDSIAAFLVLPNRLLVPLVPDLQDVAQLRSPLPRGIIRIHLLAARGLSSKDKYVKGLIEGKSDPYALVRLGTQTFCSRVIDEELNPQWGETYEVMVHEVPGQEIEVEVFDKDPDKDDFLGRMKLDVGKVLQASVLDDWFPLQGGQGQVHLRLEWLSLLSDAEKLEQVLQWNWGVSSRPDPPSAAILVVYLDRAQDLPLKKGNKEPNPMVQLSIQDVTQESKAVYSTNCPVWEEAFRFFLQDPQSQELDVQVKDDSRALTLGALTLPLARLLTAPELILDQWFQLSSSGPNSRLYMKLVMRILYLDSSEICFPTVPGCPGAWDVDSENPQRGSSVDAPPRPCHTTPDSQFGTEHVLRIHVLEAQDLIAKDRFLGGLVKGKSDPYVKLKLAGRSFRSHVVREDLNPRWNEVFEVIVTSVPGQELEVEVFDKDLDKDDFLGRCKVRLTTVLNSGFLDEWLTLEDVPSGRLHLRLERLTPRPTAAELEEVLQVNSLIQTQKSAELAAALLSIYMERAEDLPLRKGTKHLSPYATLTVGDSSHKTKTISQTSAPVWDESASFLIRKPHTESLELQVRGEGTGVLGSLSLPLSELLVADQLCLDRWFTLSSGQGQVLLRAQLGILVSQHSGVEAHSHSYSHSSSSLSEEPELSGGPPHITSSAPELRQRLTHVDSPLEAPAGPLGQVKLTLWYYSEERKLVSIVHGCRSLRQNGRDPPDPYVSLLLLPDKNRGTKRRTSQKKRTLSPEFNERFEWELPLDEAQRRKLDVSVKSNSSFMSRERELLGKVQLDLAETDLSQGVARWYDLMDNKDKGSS
Briefly: FRET dequenching lipid transfer between liposomes. Conditions: Ca2+ present, His tag on DGS-NTA(Ni) ER-like donor liposomes, PM-like acceptors, pH 7.4; labelled compound. It is filed as biochemical.

Assay [1] has as its target T4, SMP-C2AB of E-Syt1 (Homo sapiens, UniProt Q9BSJ8, K227E).
T4 construct: gene ESYT1; SMP-C2A-C2B fragment, residues 93-634, His-tagged (pCMV6-AN-His), Expi293 cells, Ni-NTA and gel filtration
T4 sequence (Q9BSJ8 93-634 K227E): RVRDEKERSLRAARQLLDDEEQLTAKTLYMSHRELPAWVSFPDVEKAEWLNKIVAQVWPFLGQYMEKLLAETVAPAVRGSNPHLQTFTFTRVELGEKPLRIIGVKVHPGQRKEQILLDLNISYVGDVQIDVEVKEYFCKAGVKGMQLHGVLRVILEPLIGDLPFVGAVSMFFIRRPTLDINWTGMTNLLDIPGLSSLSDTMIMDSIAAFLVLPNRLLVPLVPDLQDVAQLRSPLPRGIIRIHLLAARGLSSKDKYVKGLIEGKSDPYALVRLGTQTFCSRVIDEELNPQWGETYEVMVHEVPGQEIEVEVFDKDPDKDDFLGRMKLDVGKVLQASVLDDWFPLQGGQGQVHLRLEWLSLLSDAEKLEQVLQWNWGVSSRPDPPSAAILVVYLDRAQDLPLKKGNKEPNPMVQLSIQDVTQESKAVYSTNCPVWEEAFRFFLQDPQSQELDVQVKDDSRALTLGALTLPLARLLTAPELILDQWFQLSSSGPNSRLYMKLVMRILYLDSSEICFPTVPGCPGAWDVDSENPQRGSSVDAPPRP
Kind of assay: native PAGE, NBD fluorescence of protein band. The class given is binding. The settings on record: protein 40 uM, 4 °C, 1 h; solubilized NBD-PE added in methanol; labelled compound.

The target in assay [2] is T5, SMP-C2AB of E-Syt1 (Homo sapiens, UniProt Q9BSJ8, V169W/L308W).
T5 construct: gene ESYT1; SMP-C2A-C2B fragment, residues 93-634, His-tagged (pCMV6-AN-His), Expi293 cells, Ni-NTA and gel filtration
T5 sequence (Q9BSJ8 93-634 V169W/L308W): T4 sequence (Q9BSJ8 93-634 K227E) with V77W, E135K, L216W
Kind of assay: native PAGE, NBD fluorescence of protein band. It is filed as binding. The settings on record: protein 40 uM, 4 °C, 1 h; solubilized NBD-PE added in methanol; lipid cavity blocked; labelled compound.

The target of another assay is T6, SMP of E-Syt2 (Homo sapiens, UniProt A0FGR8).
T6 construct: gene ESYT2; SMP domain alone, residues 162-355, His tag (pET-28a), dimer
T6 sequence (A0FGR8 162-355 isoform A0FGR8-2): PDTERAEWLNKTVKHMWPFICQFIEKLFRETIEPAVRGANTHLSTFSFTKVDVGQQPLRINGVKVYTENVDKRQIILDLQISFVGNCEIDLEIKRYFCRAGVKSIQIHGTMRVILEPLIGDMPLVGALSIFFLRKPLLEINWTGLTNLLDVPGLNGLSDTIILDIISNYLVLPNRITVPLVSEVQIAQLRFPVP
Briefly: FRET dequenching lipid transfer between liposomes. It is filed as biochemical. The settings on record: curved ER-like donor and PM-like acceptor liposomes, pH 7.4; labelled compound.

The target in assay [3] is T7, SMP domain of E-Syt1 (SMP) (Homo sapiens, UniProt Q9BSJ8).
T7 construct: gene ESYT1; SMP domain alone, residues 134-327, N-terminal His tag (pET-28a), dimer
T7 sequence (Q9BSJ8 134-327): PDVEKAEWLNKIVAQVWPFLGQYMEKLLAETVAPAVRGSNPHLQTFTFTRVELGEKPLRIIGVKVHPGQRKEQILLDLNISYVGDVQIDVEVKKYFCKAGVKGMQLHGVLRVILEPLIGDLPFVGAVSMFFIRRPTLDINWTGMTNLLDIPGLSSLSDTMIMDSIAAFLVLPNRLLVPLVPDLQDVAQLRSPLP
Kind of assay: FRET dequenching lipid transfer between liposomes. The settings on record: 40-nm sorted ER-like donor and 800-nm PM-like acceptor liposomes, pH 7.4, 37 °C, Ca2+ not needed; Rhodamine-PE co-transferred; labelled compound. It is filed as biochemical.

Assay [4] deals with T8, SMP-C2AB of E-Syt1 (Homo sapiens, UniProt Q9BSJ8).
T8 construct: gene ESYT1; SMP-C2A-C2B fragment, residues 93-634, His-tagged (pCMV6-AN-His), Expi293 cells, Ni-NTA and gel filtration
T8 sequence (Q9BSJ8 93-634): T4 sequence (Q9BSJ8 93-634 K227E) with E135K
Briefly: native PAGE, NBD fluorescence of protein band. It is filed as binding. Conditions: protein 40 uM, 4 °C, 1 h; solubilized NBD-PE added in methanol; labelled compound.

For `CCCCCCCC/C=C\CCCCCCCC(=O)OC[C@H](COP(=O)(O)OCCNc1ccc([N+](=O)[O-])c2nonc12)OC(=O)CCCCCCC/C=C\CCCCCCCC` [NBD-PE, 1,2-dioleoyl-sn-glycero-3-phosphoethanolamine-N-(7-nitro-2-1,3-benzoxadiazol-4-yl)], the “FRET dequenching lipid transfer from proteoliposomes” value on full-length E-Syt1 is given as 40-nm sorted ER-like proteoliposomes dramatically accelerated the lipid transfer by E-Syt1. Moreover, the “FRET dequenching lipid transfer between liposomes” value on SMP of E-Syt3 is “SMP domains of E-Syt2 and E-Syt3 showed similar membrane curvature- and charge-facilitated lipid transfer”; on E-Syt1cyto, “purified His-tagged E-Syt1cyto had comparable lipid transfer and membrane tethering levels as full-length E-Syt1”; at SMP of E-Syt2 it was “SMP domains of E-Syt2 and E-Syt3 showed similar membrane curvature- and charge-facilitated lipid transfer”; in assay [3], 40-nm sorted ER-like liposomes produced a robust lipid transfer level. Besides, the “native PAGE, NBD fluorescence of protein band” value was “NBD-PE was loaded onto purified WT protein and K227E mutant at a similar level” at SMP-C2AB of E-Syt1 [1]; “block the hydrophobic cavity of the SMP domain (V169W/L308W) impaired lipid harboring” at SMP-C2AB of E-Syt1 [2]; “solubilized NBD-PE was loaded onto purified WT protein and K227E mutant” at SMP-C2AB of E-Syt1 [4].
